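Step 1: Grow cells in 96-well plates. Step 2: Expose to compound for 48 hours at 5 concentrations. Step 3: Interpolate endpoints linearly; if unreached, use highest concentration. At the GI50, growth is halved. TGI marks complete inhibition of growth.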
Assays:
Experiment in all cases: NCI anticancer screen, dose series, 48 h
HCT-116 colon = test system: HCT-116 colon
NCI-H23 lung = test system: NCI-H23 lung
UO-31 renal = test system: UO-31 renal
OVCAR-5 ovarian = test system: OVCAR-5 ovarian
BT-549 breast = test system: BT-549 breast
RPMI-8226 leukemia = test system: RPMI-8226 leukemia
HCT-15 colon = test system: HCT-15 colon
MDA-MB-435 = test system: MDA-MB-435
MCF7 breast = test system: MCF7 breast
HS 578T breast = test system: HS 578T breast
MDA-MB-231 breast = test system: MDA-MB-231 breast
A498 renal = test system: A498 renal
HT29 colon = test system: HT29 colon
NCI/ADR-RES ovarian = test system: NCI/ADR-RES ovarian
A549 NSCLC = test system: A549 NSCLC
KM12 colon = test system: KM12 colon
M14 melanoma = test system: M14 melanoma
MOLT-4 leukemia = test system: MOLT-4 leukemia
RXF 393 renal = test system: RXF 393 renal
UACC-62 melanoma = test system: UACC-62 melanoma
HOP-92 NSCLC = test system: HOP-92 NSCLC
T-47D breast = test system: T-47D breast
OVCAR-4 ovarian = test system: OVCAR-4 ovarian
OVCAR-3 ovarian = test system: OVCAR-3 ovarian
SK-MEL-5 melanoma = test system: SK-MEL-5 melanoma
NCI-H522 lung = test system: NCI-H522 lung
SN12C renal = test system: SN12C renal
EKVX NSCLC = test system: EKVX NSCLC
NCI-H226 lung = test system: NCI-H226 lung
K-562 leukemia = test system: K-562 leukemia
786-0 renal = test system: 786-0 renal
U251 CNS = test system: U251 CNS
HOP-62 NSCLC = test system: HOP-62 NSCLC
LOX IMVI melanoma = test system: LOX IMVI melanoma
SR leukemia = test system: SR leukemia
MALME-3M melanoma = test system: MALME-3M melanoma
SF-268 CNS = test system: SF-268 CNS
DU-145 prostate = test system: DU-145 prostate
PC-3 prostate = test system: PC-3 prostate
TK-10 renal = test system: TK-10 renal
OVCAR-8 ovarian = test system: OVCAR-8 ovarian
SNB-75 CNS = test system: SNB-75 CNS
NCI-H460 lung = test system: NCI-H460 lung
SNB-19 CNS = test system: SNB-19 CNS
CAKI-1 renal = test system: CAKI-1 renal
SK-MEL-2 melanoma = test system: SK-MEL-2 melanoma
SK-MEL-28 melanoma = test system: SK-MEL-28 melanoma
ACHN renal = test system: ACHN renal
HCC-2998 colon = test system: HCC-2998 colon
SK-OV-3 ovarian = test system: SK-OV-3 ovarian
SW-620 colon = test system: SW-620 colon
UACC-257 melanoma = test system: UACC-257 melanoma
SF-539 CNS = test system: SF-539 CNS
SF-295 CNS = test system: SF-295 CNS
IGROV1 ovarian = test system: IGROV1 ovarian
COLO 205 colon = test system: COLO 205 colon

COC(=O)[C@H](CC(C)C)NC(=O)NC(=O)NC(=O)CI
GI50 (HCT-116 colon): 10 µM
TGI (HCT-116 colon): 22.8 µM
GI50 (NCI-H23 lung): 14.9 µM
TGI (NCI-H23 lung): 32.2 µM
GI50 (UO-31 renal): 1.64 µM
TGI (UO-31 renal): 3.13 µM
GI50 (OVCAR-5 ovarian): 14.3 µM
TGI (OVCAR-5 ovarian): 30 µM
GI50 (BT-549 breast): 5.32 µM
TGI (BT-549 breast): 17.7 µM
GI50 (RPMI-8226 leukemia): 2.92 µM
TGI (RPMI-8226 leukemia): 7.75 µM
GI50 (HCT-15 colon): 1.66 µM
TGI (HCT-15 colon): 3.13 µM
GI50 (MDA-MB-435): 6.1 µM
TGI (MDA-MB-435): 19.2 µM
GI50 (MCF7 breast): 1.8 µM
TGI (MCF7 breast): 4.33 µM
GI50 (HS 578T breast): 24.3 µM
TGI (HS 578T breast): 77.4 µM
GI50 (MDA-MB-231 breast): 10.2 µM
TGI (MDA-MB-231 breast): 25.8 µM
GI50 (A498 renal): 17.7 µM
TGI (A498 renal): 32.6 µM
GI50 (HT29 colon): 1.93 µM
TGI (HT29 colon): 3.59 µM
GI50 (NCI/ADR-RES ovarian): 25.5 µM
TGI (NCI/ADR-RES ovarian): 74.1 µM
GI50 (A549 NSCLC): 20.3 µM
TGI (A549 NSCLC): 39.6 µM
GI50 (KM12 colon): 15.8 µM
TGI (KM12 colon): 32.8 µM
GI50 (M14 melanoma): 2.03 µM
TGI (M14 melanoma): 4.94 µM
GI50 (MOLT-4 leukemia): 2.1 µM
TGI (MOLT-4 leukemia): 5.12 µM
GI50 (RXF 393 renal): 2.46 µM
TGI (RXF 393 renal): 6.54 µM
GI50 (UACC-62 melanoma): 13.4 µM
TGI (UACC-62 melanoma): 28.2 µM
GI50 (HOP-92 NSCLC): 2.14 µM
TGI (HOP-92 NSCLC): 4.98 µM
GI50 (T-47D breast): 2.28 µM
TGI (T-47D breast): 7.03 µM
GI50 (OVCAR-4 ovarian): 1.88 µM
TGI (OVCAR-4 ovarian): 4.26 µM
GI50 (OVCAR-3 ovarian): 1.99 µM
TGI (OVCAR-3 ovarian): 3.51 µM
GI50 (SK-MEL-5 melanoma): 16.4 µM
TGI (SK-MEL-5 melanoma): 30.3 µM
GI50 (NCI-H522 lung): 1.67 µM
TGI (NCI-H522 lung): 3.2 µM
GI50 (SN12C renal): 3.61 µM
TGI (SN12C renal): 16.2 µM
GI50 (EKVX NSCLC): 16.1 µM
TGI (EKVX NSCLC): 29.8 µM
GI50 (NCI-H226 lung): 2.95 µM
TGI (NCI-H226 lung): 10 µM
GI50 (K-562 leukemia): 1.91 µM
TGI (K-562 leukemia): 4.6 µM
GI50 (786-0 renal): 3.02 µM
TGI (786-0 renal): 11.5 µM
GI50 (U251 CNS): 15.8 µM
TGI (U251 CNS): 29.3 µM
GI50 (HOP-62 NSCLC): 18.2 µM
TGI (HOP-62 NSCLC): 34.2 µM
GI50 (LOX IMVI melanoma): 1.64 µM
TGI (LOX IMVI melanoma): 3.24 µM
GI50 (SR leukemia): 1.25 µM
TGI (SR leukemia): 4.37 µM
GI50 (MALME-3M melanoma): 1.62 µM
TGI (MALME-3M melanoma): 3.43 µM
GI50 (SF-268 CNS): 11.3 µM
TGI (SF-268 CNS): 29.1 µM
GI50 (DU-145 prostate): 14 µM
TGI (DU-145 prostate): 27 µM
GI50 (PC-3 prostate): 11.8 µM
TGI (PC-3 prostate): 25.7 µM
GI50 (TK-10 renal): 1.72 µM
TGI (TK-10 renal): 3.62 µM
GI50 (OVCAR-8 ovarian): 5.69 µM
TGI (OVCAR-8 ovarian): 18.4 µM
GI50 (SNB-75 CNS): 11.9 µM
TGI (SNB-75 CNS): 28.6 µM
GI50 (NCI-H460 lung): 18.7 µM
TGI (NCI-H460 lung): 41.5 µM
GI50 (SNB-19 CNS): 18 µM
TGI (SNB-19 CNS): 37.1 µM
GI50 (CAKI-1 renal): 1.06 µM
TGI (CAKI-1 renal): 2.23 µM
GI50 (SK-MEL-2 melanoma): 13.7 µM
TGI (SK-MEL-2 melanoma): 27.9 µM
GI50 (SK-MEL-28 melanoma): 5.64 µM
TGI (SK-MEL-28 melanoma): 19.1 µM
GI50 (ACHN renal): 1.78 µM
TGI (ACHN renal): 3.38 µM
GI50 (HCC-2998 colon): 11.4 µM
TGI (HCC-2998 colon): 24.2 µM
GI50 (SK-OV-3 ovarian): 17.6 µM
TGI (SK-OV-3 ovarian): 31.8 µM
GI50 (SW-620 colon): 1.83 µM
TGI (SW-620 colon): 3.53 µM
GI50 (UACC-257 melanoma): 7.76 µM
TGI (UACC-257 melanoma): 20.3 µM
GI50 (SF-539 CNS): 3.16 µM
TGI (SF-539 CNS): 12.2 µM
GI50 (SF-295 CNS): 14.7 µM
TGI (SF-295 CNS): 28.7 µM
GI50 (IGROV1 ovarian): 2.06 µM
TGI (IGROV1 ovarian): 4.64 µM
GI50 (COLO 205 colon): 1.79 µM
TGI (COLO 205 colon): 3.47 µM
